Measurements from US4064351A, “9-OXO-15 .xi.-HYDROXY-20-ALKYLIDENEPROST-13(TRANS)-ENOIC ACID DERIVATIVES” (Sankyo Company Limited, priority 1974, dated 1977).

What was measured:
[1] = test system: gastric secretion (stomach of a male rat); assay: Inhibition of gastric secretion (tetragastrin-stimulated, perfused stomach of anesthetized rat; dose raising perfusate pH by 1.0); assay type: in vivo, Donryu strain); conditions: intravenous administration for 30 minutes; urethane-anesthetized rat; tetragastrine 10 μg/kg/hr
Procedure: The method employed was essentially same as described by M. N. Ghosh and H. O. Schild in British Journal of Pharmacology and Chemotherapy, vol. 13, 54-61 (1958). Through the stomach of a male rat (Donryu strain) anesthetized by administration of urethane was perfused a physiological saline solution containing a small amount of sodium hydroxide at a rate of 1 ml/min. Then 10 μg/kg/hr of a gastric secretion stimulating agent, tetragastrine, was continuously injected into the vein of said rat until pH of the outflowing perfusate reached approximately 3 and said value remained. Thereupon, a certain amount of the test compounds was administered at a certain rate into the vein for 30 minutes, and pH of the outflowing perfusate was measured. The measurement was repeated with variation of the administering amount.

[2] = test system: bronchodilating activity in presence of a β-adrenergic blocking agent; assay: Inhibition of the bronchodilating activity by a β-adrenergic blocking agent
[3] = test system: air-way resistance in guinea pigs; assay: Bronchodilating activity: inhibition of histamine-induced increase in air-way resistance (variant Konzett-Rossler method); assay type: in vivo, guinea pig; conditions: Cavia porcellus; intravenous (method; head prints i.r.); histamine 2 - 3 μg/kg i.v.; parentheses = 95% confidence limit; read-out: 50% Inhibition Dose (ID50) of increase of air-way resistance in guinea pigs
Procedure: The test compounds were administered through intravenous injection to a guinea pig (body weight: 400 - 600 g) anesthetized by administration of sodium pentobarbital, and 2 - 3 μg/kg of histamine was administered through intravenous injection. Inhibitory ratio of increase in air-way resistance was determined by the variant method of Konzett-Rossler method [Archiv fur Experimentelle Pathologie und Pharmakologie, vol. 195, 71 (1940)].

Row | SMILES | Dose needed to increase the pH of the outflowing perfusate by 1.0 [1] [mg/kg/hr] | inhibition of bronchodilating activity by a β-adrenergic blocking agent (in words) [2] | ED50 [3] [µg/kg]
1 | CC(C)=CCCC(C)C[C@H](O)/C=C/[C@H]1[C@H](O)CC(=O)[C@@H]1C/C=C\CCCC(=O)O (relative stereo) [Compound B, 9-oxo-11α, 15α-dihydroxy-17β-methyl-20-isopropylideneprost-5-(cis), 13(trans)-dienoic acid] | 0.070 |  | 
2 | CC(C)=CCCC(C)CC(O)/C=C/C1C(O)CC(=O)C1CCCCCCC(=O)O (stereo not drawn) [Compound A, 9-oxo-11α,15α-dihydroxy-17β-methyl-20-isopropylideneprost-13(trans)-enoic acid] | 0.074 |  | 
3 | CC(C)NCC(O)c1ccc(O)c(O)c1 (stereo not shown) [Isoproterenol] |  | inhibits | 
4 | CCCCC[C@H](O)/C=C/[C@H]1[C@H](O)CC(=O)[C@@H]1CCCCCCC(=O)O [PGE1, prostaglandin E1] | 0.086 |  | 0.14
5 | CCCCC[C@H](O)/C=C/[C@H]1[C@H](O)CC(=O)[C@@H]1C/C=C\CCCC(=O)O [PGE2] |  |  | 0.21
6 | CC(C)(C)NCC(O)c1ccc(O)c(CO)c1 (stereo not shown) [Salbutanol] |  | inhibits | 
